Laboratory results published in patent publication US11716994B2, “Combinations of Yersinia entomophaga and pesticides or other substances” (priority 2017, dated 2023).
Like-named read-outs stand apart in the source and are kept apart here.

Legend:
[1] = test system: Colorado potato beetle; assay: Tomato leaf disk mortality assay, Y. entomophaga cells with chemical insecticides; conditions: for mortality at 120 µg/mL: Leptinotarsa decemlineata, in Solanum lycopersicum, foliar
[2] = test system: cabbage looper; conditions: thiamethoxam 150 mg/L
[3] = test system: diamondback moth; assay: Leaf disk mortality assay, Y. entomophaga cells with chemical insecticides; conditions: for mortality at 150 µg/mL: Plutella xylostella, foliar
[4] = 120 h, read-out: % Mortality (5DAT)
[5] = 144 h, read-out: % Mortality (6DAT)

SMILES | LT50 (95% confidence intervals) ([1]; 4th instar larva, ethiprole 120 mg/L, isolate O43NEW 1×10^7 cfu/mL) [days] | % Mort. Chem. ([1]; Colorado potato beetle, Ethiprole 120 mg/L, 5 DAT) [%] | LT50 Chem. ([1]; Colorado potato beetle, Ethiprole alone 120 mg/L) [days] | mortality at 120 µg/mL ([1]; 72 h, read-out: % Mortality (3DAT)) [%] | mortality at 120 µg/mL ([1]; 96 h, read-out: % Mortality (4DAT)) [%] | mortality at 120 µg/mL [1, 4] [%] | mortality at 120 µg/mL [1, 5] [%] | LT50 (95% confidence intervals) in days ([2]; 3rd instar cabbage looper, O43NEW undiluted filtrate, alone or combined) | LT50 Chem. ([2]; Cabbage Looper) [days] | % Mort. Chem. ([2]; Cabbage Looper, DAT column prints 62) [%] | mortality at 150 µg/mL [3, 4] [%] | mortality at 150 µg/mL [3, 5] [%] | % Mort. Chem. ([3]; diamondback moth, Thiamethoxam 150 mg/L, 6 DAT) [%] | LT50 Chem. ([3]; diamondback moth, Thiamethoxam alone 150 mg/L) [days]
CC[S+]([O-])c1c(C#N)nn(-c2c(Cl)cc(C(F)(F)F)cc2Cl)c1N (centres unmarked) [Ethiprole] | 8.90 | 21 | 8.90 | 21 | 21 | 21 | 37 |  |  |  |  |  |  | 
CN1COCN(Cc2cnc(Cl)s2)/C1=N\[N+](=O)[O-] [Thiamethoxam] |  |  |  |  |  |  |  | 6.97 (5.92-8.22) days | 6.97 | 1.1 | 11 | 16 | 16 | 10.09
